The experiment has as its target T1, hFP (Homo sapiens, UniProt P43088).
T1 construct: expressed in transfected cells; host or cells: COS-7 cells, transient transfection with LipofectAMINE; membranes prepared
Briefly: Radioligand Binding Assay (receptor competition binding, hFP membranes). To be noted: competition against 5 nM (3H) PGF2 on hFP membrane from transfected COS-7 cells; method per Reference Example 1; read-out: IC50 of the Prostaglandin. As to the method:
IC50 of a prostaglandin can be determined relative to PGF2α using the Radioligand Binding Assay. As a control, the IC50 for PGF2α itself should be no lower than 1.0 nM and no higher than 5.0 nM.
In this assay, COS-7 cells are transiently transfected with the hFP recombinant plasmid using LipofectAMINE Reagent. Forty-eight hours later, the tranfected cells are washed with Hank's Balanced Salt Solution (HBSS, without CaCl2, MgCl2, MgSO4, or phenol red). The cells are detached with versene, and HBSS is added. The mixture is centrifuged at 200g for 10 minutes, at 4° C. to pellet the cells. The pellet is resuspended in Phosphate-Buffered Saline-EDTA buffer (PBS; 1 mM EDTA; pH 7.4; 4° C.). The cells are disrupted by nitrogen cavitation (Parr model 4639), at 800 psi, for 15 minutes at 4° C. The mixture is centrifuged at 1000 g for 10 minutes at 4° C. The supernatant is centrifuged at 100,000 g for 60 minutes at 4° C. The pellet is resuspended to 1 mg protein/mL TME buffer (50 mM Tris; 10 mM MgCl2; 1 mM EDTA; pH 6.0; 4° C.) based on protein levels measured using the Pierce BCA Protein Assay kit. The homogenate is mixed for 10 seconds using a Kinematica POLYTRON® (available from KINEMATICA AG, Luzernerstrasse147A CH-6014 Littau, Switzerland). The membrane preparations are then stored at −80° C., until thawed for assay use.
The receptor competition binding assays are developed in a 96 well format. Each well contains […] of hFP membrane, 5 nM (3H) PGF2, and the various competing compounds in a total volume of […]. The plates are incubated at 23° C. for 1 hour. The incubation is terminated by rapid filtration using the Packard Filtermate 196 harvester through Packard UNIFILTER® GF/B filters (available from Packard Instrument Co., Inc. of Downers Grove Ill.) pre-wetted with TME buffer. The filter is washed four times with TME buffer. […] The plates are read on a Packard TOPCOUNT® Microplate Scintillation Counter (also available from Packard Instrument Co., Inc.)
T1 sequence (P43088 whole entry): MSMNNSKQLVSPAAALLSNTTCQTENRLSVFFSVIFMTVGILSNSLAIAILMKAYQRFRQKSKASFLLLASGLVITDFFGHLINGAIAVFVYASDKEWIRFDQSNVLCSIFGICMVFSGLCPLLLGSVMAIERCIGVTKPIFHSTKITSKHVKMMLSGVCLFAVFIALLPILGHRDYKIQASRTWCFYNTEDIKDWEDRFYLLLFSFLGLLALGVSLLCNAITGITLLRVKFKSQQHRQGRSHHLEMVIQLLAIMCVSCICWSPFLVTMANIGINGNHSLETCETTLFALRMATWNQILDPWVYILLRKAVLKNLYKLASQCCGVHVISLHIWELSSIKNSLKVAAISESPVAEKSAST
As to `CCCCC[C@H](O)/C=C/[C@H]1C(NO)C[C@H](O)[C@@H]1C/C=C\CCCC(=O)O` (stereo partly drawn) [Example 1-2], the half-inhibitory concentration (IC50) (usually the concentration that inhibits the measured activity by half) turned out to be 0.15 µM. The value for `O=C(O)CCCCCC[C@H]1[C@@H](O)C/C(=N/O)[C@@H]1CC[C@@H](O)CSc1ccccc1` was 0.162 µM; that for `CCCCC[C@H](O)/C=C/[C@H]1/C(=N\O)C[C@H](O)[C@@H]1C/C=C\CCCC(=O)O` [Example 1-1] was 0.015 µM.
